Some test systems named below: A549; CCRF-CEM; HCT-15; IGROV-1; LOX IMVI; LXFL 529; OVCAR-4; OVCAR-8; RPMI-8226; RXF 393; SF-268; SK-OV-3; SNB-78; SW-620; UACC-62; UO-31; A498; T47D; Hs-578T; MDA-MB-231.
Holding throughout (assay): inhibition of tumour cell growth, NCI panel, 48 h

Values joined by “and” are separate entries in the source; they are usually repeats but may differ in a detail not shown here. Equal entries are not always repeated.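 Test compounds were applied to cells in 96-well plates for 48 hours at 5 doses. GI50 is the concentration that inhibits growth by half.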 Active and inactive are the calls of the source. Rule as the data show it: active = GI50 up to about 1.1 µM and inactive = higher.

As for `O=C(NC(=O)c1cn(CCNCCO)c(=O)[nH]c1=O)OCc1ccccc1`, the GI50 in the experiment on A549 was > 100 µM (inactive); with CCRF-CEM it was > 100 µM (inactive); with HCT-15, greater than 100 µM; in the experiment on IGROV-1, > 100 µM (inactive); with LOX IMVI, > 100 µM (inactive); in the experiment on LXFL 529, > 100 µM (inactive). For the same molecule, the GI50 with OVCAR-4, with OVCAR-8, with RPMI-8226, in the experiment on RXF 393, in the experiment with SF-268 and with SK-OV-3 was > 100 µM (inactive) each time. The GI50 in the experiment with SNB-78, with SW-620 and in the experiment on UACC-62 was > 100 µM (inactive) in each case.

Take `CN(C)/N=C(/c1nc2ccc([N+](=O)[O-])cc2nc1O)C(O)c1ccco1` (stereo not drawn): the GI50 was > 100 µM (inactive) with A549; > 100 µM (inactive) with CCRF-CEM; 26.2 µM in the experiment on HCT-15; 90.4 µM (inactive) in the experiment with IGROV-1; 50 µM (inactive) with LOX IMVI; 58.1 µM (inactive) in the experiment with LXFL 529. Also, the GI50 in the experiment on OVCAR-4 was > 100 µM (inactive); with OVCAR-8, > 100 µM (inactive); in the experiment with RPMI-8226, > 100 µM (inactive); in the experiment on RXF 393, > 100 µM (inactive); in the experiment on SF-268 it was 84.9 µM (inactive); with SK-OV-3 it was > 100 µM (inactive). The GI50 in the experiment with SNB-78 was > 100 µM (inactive); in the experiment with SW-620 it was 92.3 µM (inactive); in the experiment on UACC-62 it was 22.8 µM (inactive); in the experiment with UO-31, 2.51 µM (inactive).

`Cc1nc2c(n1CCN(C)C)C(=O)c1ccccc1C2=O`: the GI50 in the experiment on A549 was 18.8 µM (inactive); in the experiment with CCRF-CEM it was 17.7 µM (inactive); with HCT-15, 12.8 µM; in the experiment on IGROV-1, 13.4 µM (inactive); in the experiment on LOX IMVI, 14.9 µM (inactive); in the experiment with LXFL 529 it was 17.9 µM (inactive). Also, the GI50 in the experiment with OVCAR-4 is 15.6 µM (inactive); in the experiment with OVCAR-8, 17.2 µM (inactive); with RXF 393, 19.4 µM (inactive); in the experiment with SF-268, 22 µM (inactive); in the experiment on SK-OV-3, 45.8 µM (inactive); in the experiment on SNB-78 it was 24.7 µM (inactive). Also, the GI50 in the experiment with SW-620 is 15.2 µM (inactive); in the experiment on UACC-62, 11.9 µM (inactive); with UO-31, 21 µM (inactive).

Regarding `CCc1cccc(C(C)CC)c1/N=C(/NC(=O)c1ccccc1C(=O)N/C(=N/c1c(CC)cccc1C(C)CC)SC)SC` (stereo not drawn), the GI50 in the experiment on A549 is 47.3 µM (inactive); in the experiment on CCRF-CEM, 27.5 µM (inactive); in the experiment with HCT-15, 40.1 µM; in the experiment with IGROV-1, 38.7 µM (inactive); in the experiment on LOX IMVI it was 31.3 µM (inactive); in the experiment on LXFL 529, 39.9 µM (inactive). The GI50 with OVCAR-4 was 54.3 µM (inactive); in the experiment with OVCAR-8, 59.2 µM (inactive); in the experiment with RPMI-8226, 30.1 µM (inactive); in the experiment on RXF 393, 35.5 µM (inactive); in the experiment on SF-268, 72.3 µM (inactive); in the experiment on SK-OV-3, 28.6 µM (inactive). For the same molecule, the GI50 in the experiment with SNB-78 is 21.5 µM (inactive); in the experiment with SW-620 it was 31.9 µM (inactive); with UACC-62, 20.9 µM (inactive); in the experiment on UO-31, 30.6 µM (inactive).

`CC1CN(c2ccc(Cl)cc2)CC(C)OC(=O)O1` (stereo not drawn): the GI50 in the experiment on A549 is > 100 µM (inactive); in the experiment on CCRF-CEM it was > 100 µM (inactive); in the experiment with HCT-15, greater than 100 µM; in the experiment on IGROV-1 it was > 100 µM (inactive); in the experiment with LOX IMVI, > 100 µM (inactive); with LXFL 529 it was > 100 µM (inactive). Besides, the GI50 in the experiment on OVCAR-4, in the experiment on OVCAR-8, with RPMI-8226, with RXF 393, in the experiment with SF-268 and in the experiment on SK-OV-3 was > 100 µM (inactive) throughout. For the same molecule, the GI50 in the experiment with SNB-78, with SW-620, with UACC-62 and with UO-31 was > 100 µM (inactive) throughout.

Consider `O=C1c2nn(-c3ccccc3)nc2C(c2ccccc2)N1c1ccccc1` (stereo not drawn), for which the GI50 is > 100 µM (inactive) with A549; > 100 µM (inactive) in the experiment with CCRF-CEM; greater than 100 µM in the experiment with HCT-15; 77.6 µM (inactive) with IGROV-1; > 100 µM (inactive) with LOX IMVI; > 100 µM (inactive) with LXFL 529. The GI50 with OVCAR-4 is > 100 µM (inactive); with OVCAR-8, 52.8 µM (inactive); in the experiment with RPMI-8226, > 100 µM (inactive); in the experiment on SF-268, > 100 µM (inactive); in the experiment on SNB-78, 28.1 µM (inactive); with SW-620, > 100 µM (inactive). Besides, the GI50 in the experiment with UACC-62 and with UO-31 was > 100 µM (inactive) in each case.

Regarding `Cc1ccc(S(=O)(=O)N/N=C/c2oc(-c3ccncc3)c(-c3ccncc3)c2[N+](=O)[O-])cc1`, the GI50 in the experiment with A498 was > 100 µM (inactive); with A549 it was > 100 µM (inactive); in the experiment with CCRF-CEM it was > 100 µM (inactive); in the experiment with HCT-15, greater than 100 µM; in the experiment with IGROV-1 it was > 100 µM (inactive); with LOX IMVI, > 100 µM (inactive). In addition, the GI50 with LXFL 529, in the experiment with OVCAR-4, in the experiment on OVCAR-8, with RXF 393, in the experiment on SF-268 and in the experiment with SK-OV-3 was > 100 µM (inactive) throughout. Further, the GI50 in the experiment with SNB-78, in the experiment on SW-620, in the experiment on UACC-62 and in the experiment on UO-31 was > 100 µM (inactive) throughout.

For the molecule `CC1CCC(C(C)(C)c2ccccc2)C(=O)C1` (stereo not drawn), the GI50 in the experiment on A498 is > 100 µM (inactive); with A549, > 100 µM (inactive); in the experiment on CCRF-CEM, > 100 µM (inactive); in the experiment with HCT-15, greater than 100 µM; in the experiment with IGROV-1, > 100 µM (inactive); in the experiment with LOX IMVI, > 100 µM (inactive). Also, the GI50 with LXFL 529 is > 100 µM (inactive); in the experiment with OVCAR-4, > 100 µM (inactive); with OVCAR-8, > 100 µM (inactive); in the experiment with RPMI-8226, 95.3 µM (inactive); in the experiment with SF-268 it was > 100 µM (inactive); with SK-OV-3 it was > 100 µM (inactive). For the same molecule, the GI50 is > 100 µM (inactive) in the experiment on SNB-78, > 100 µM (inactive) in the experiment with SW-620, > 100 µM (inactive) in the experiment with UACC-62 and 18.3 µM (inactive) with UO-31.

As to `CN1C(OCc2ccccc2)c2c(ccc3c2OCO3)C2C=Cc3cc4c(cc3C21)OCO4` (stereo not drawn), the GI50 was 1.49 µM (inactive) with A549; 0.254 µM (active) in the experiment on CCRF-CEM; 0.597 µM in the experiment with HCT-15; 0.792 µM (active) in the experiment on IGROV-1; 0.182 µM (active) in the experiment on LOX IMVI; 0.371 µM (active) in the experiment on LXFL 529. The GI50 in the experiment on OVCAR-4 was 1.69 µM (inactive); with OVCAR-8 it was 0.319 µM (active); in the experiment with RPMI-8226, 0.221 µM (active); with RXF 393 it was 1.1 µM (active); with SF-268 it was 0.475 µM (active); with SK-OV-3 it was 1.22 µM (inactive). Moreover, the GI50 is 0.598 µM (active) in the experiment on SNB-78, 0.38 µM (active) in the experiment with SW-620, 1.2 µM (inactive) in the experiment with UACC-62 and 1.32 µM (inactive) with UO-31.

For the molecule `Cc1[nH]c2ccccc2c1C1CC(=O)NC1=O` (stereo not drawn), the GI50 is > 100 µM (inactive) with A498; > 100 µM (inactive) with A549; > 100 µM (inactive) in the experiment with CCRF-CEM; greater than 100 µM with HCT-15; > 100 µM (inactive) with IGROV-1; > 100 µM (inactive) in the experiment on OVCAR-4. In addition, the GI50 with OVCAR-8, in the experiment on RPMI-8226, in the experiment with RXF 393, with SK-OV-3, in the experiment with SNB-78 and in the experiment on SW-620 was > 100 µM (inactive) in each case. Also, the GI50 with UACC-62 and with UO-31 was > 100 µM (inactive) in each case.

As for `C=CCO[C@H]1CC[C@@]2(C)C(CC[C@]3(C)C2CC=C2[C@@H]4[C@@H](C)C(C)CC[C@]4(C(=O)O)CCC23C)C1(C)C` (stereo partly drawn), the GI50 in the experiment on A498 was 17.3 µM (inactive); with A549 it was 16.4 µM (inactive); in the experiment on CCRF-CEM, 13.2 µM (inactive); in the experiment on IGROV-1 it was 16.6 µM (inactive); in the experiment with LOX IMVI, 13.5 µM (inactive); in the experiment with LXFL 529 it was 12.6 µM (inactive). For the same molecule, the GI50 in the experiment with OVCAR-4 is 17.6 µM (inactive); in the experiment with OVCAR-8, 18.4 µM (inactive); in the experiment with RXF 393 it was 6.05 µM (inactive); in the experiment with SF-268, 19.2 µM (inactive); in the experiment with SK-OV-3, 16.9 µM (inactive); in the experiment on SNB-78, 17.6 µM (inactive). For the same molecule, the GI50 in the experiment on SW-620 is 18.5 µM (inactive); in the experiment with UACC-62, 14.4 µM (inactive); with UO-31 it was 15 µM (inactive).

As for `COc1cccc2c1C(=O)c1c(O)c3c(c(O)c1C2=O)C[C@@](O)(C(=O)CO)C[C@@H]3OC1CC(N)C(O)C(C)O1` (stereo partly drawn), the GI50 with A549 was 74.1 nM (active) and 80.2 nM (active); in the experiment on CCRF-CEM it was 34.8 nM (active) and 44.9 nM (active); in the experiment on LOX IMVI it was 52.1 nM (active) and 44.4 nM (active); in the experiment on OVCAR-4, 1.16 µM (inactive) and 671 nM (active); with OVCAR-8, 200 nM (active) and 136 nM (active); with RPMI-8226, 55.3 nM (active) and 43.9 nM (active). For the same molecule, the GI50 is 0.414 µM (active) in the experiment on SK-OV-3; 0.457 µM (active) with SNB-78; 79.4 nM (active) and 122 nM (active) in the experiment with SW-620; 94.2 nM (active) and 94 nM (active) in the experiment with T47D.

Regarding `CO[C@H]1Nc2c(ccc(C)c2O)C(=O)N2C=C(/C=C/C(N)=O)C[C@@H]12` [ANTHRAMYCIN METHYL ETHER], the GI50 with A498 was 0.183 µM (active); in the experiment with A549, 0.0331 µM (active); with CCRF-CEM it was 0.0193 µM (active); in the experiment on HCT-15, 0.0283 µM; in the experiment with Hs-578T it was 0.0103 µM (active); with IGROV-1, 0.0358 µM (active). Also, the GI50 in the experiment on LOX IMVI is 0.0161 µM (active); in the experiment on MDA-MB-231, 0.0159 µM (active); in the experiment with OVCAR-4, 0.052 µM (active); with OVCAR-8, 0.0394 µM (active); in the experiment with RPMI-8226, 0.0242 µM (active); in the experiment on RXF 393, 0.0296 µM (active). The GI50 with SF-268 is 0.0183 µM (active); in the experiment on SK-OV-3, 0.0405 µM (active); in the experiment with SNB-78 it was 0.0258 µM (active); in the experiment with SW-620, 0.0308 µM (active); in the experiment with T47D it was 495 nM (active); in the experiment with UACC-62 it was 0.0151 µM (active). For the same molecule, the GI50 in the experiment with UO-31 is 0.0175 µM (active).

(Values after ChEMBL document CHEMBL1201862, “PubChem BioAssay data set” (2004).)
